# Source: patent US10392667B2, “Methods and devices for predicting treatment efficacy of fulvestrant in cancer patients” (Medical Prognosis Institute A/S, priority 2013, dated 2019)
# Read-outs that look alike come from different tables or passages of the source.
# Experiments:
# [1] = system: Ki67; conditions: after 4 weeks of treatment, patients, cited from earlier work
# [2] = system: NCI60 cell lines; conditions: mean over all NCI60 cell lines (FIG. 8); cited from earlier work
# [3] = system: ER-positive, locally advanced breast cancer; assay: NEWEST Phase II trial: tumor response by 3D ultrasound after 16 weeks of neoadjuvant fulvestrant; type: in vivo, human; conditions: for overall response rate (CR+PR): 16 weeks
# Experimental: NEWEST (Neoadjuvant Endocrine Therapy for Women with Estrogen-Sensitive Tumors; 9238IL/0065) was a randomized, open-label, multicenter, Phase II study involving postmenopausal women with newly diagnosed, ER-positive, locally advanced breast cancer who had received no prior breast cancer treatment ([…]). Eligible patients were randomized 1:1 to receive either fulvestrant 500 mg or 250 mg for 16 weeks preceding surgery. Fulvestrant 500 mg was given as two 5 ml intramuscular injections on days 0, 14, 28 and every 28 days thereafter for 16 weeks. Fulvestrant 250 mg was given as one 5 ml injection on days 0, 28 and every 28 days thereafter for 16 weeks (Kuter et al., Breast Cancer Res. Treat., 133:237-246, 2012).
# A total of 211 patients were enrolled in NEWEST. Of these, 173 completed the study and 121 met all protocol criteria. Fresh frozen pre-treatment samples with sufficient RNA (100 ng) was available from 44 patients. Two samples were discarded due to array quality, leaving 42 patients. Of these 42 patients, 22 were in the 500 mg treatment group and 20 were in the 250 mg treatment group.
# During the 16-week treatment phase, patients underwent clinical breast examination every 4 weeks. Tumor volume was measured by 3D ultrasound at baseline, week 4, and after 16 weeks of treatment before definitive surgery. Tumor response was defined as complete response (CR, disappearance of all lesions), partial response (PR, at least 65% reduction in tumor volume by 3D ultrasound), disease progression (PD, at least 73% increase in tumor volume), or stable disease (SD, neither partial response nor disease progression). The reduction for partial response was in relation to baseline but for progressive disease was in relation to the smallest tumor volume at any preceding assessment. Objective responders were those patients with a complete response or partial response.
# [4] = system: early breast cancer; assay: Trial 223: neoadjuvant anastrozole, response according to RECIST; type: in vivo, human; conditions: patients with outcome information
# Experimental: Trial 223 (Smith et al., J. Clin. Oncol., 25:3816-3822, 2007) was a placebo-controlled trial of neoadjuvant anastrozole alone or with gefitinib in early breast cancer. We used pre-treatment samples from patients from arm B and C: anastrozole 1 mg/d for the duration of the 16 week period plus placebo 1 tablet/d orally for 2 weeks. Patients in arm B were followed by gefitinib 250 mg/d orally for 14 weeks whereas patients in arm C continued with placebo for 14 weeks. We received pre-treatment biopsy material from 21 patients in arms B and C with Ki67 measurements after 2 weeks. We received pre-treatment biopsy material from 16 patients in arm C with outcome information according to guidelines set forth in Response Evaluation Criteria in Solid Tumors (RECIST).
# The prediction score of the invention (e.g., prediction score for fulvestrant) was tested for the ability to predict response to aromatase inhibition in a small cohort of 21 patients treated with neoadjuvant anastrozole in a similar protocol to that used to test fulvestrant. […] In addition there was no correlation between prediction score and change in Ki67 produced after 2 weeks of anastrozole treatment (N=21, P=0.9).
# [5] = 250 mg fulvestrant, patients with array data
# [6] = 500 mg fulvestrant for 16 weeks, patients with array data
smiles,measurement,setting,value
"C[C@]12CC[C@@H]3c4ccc(O)cc4C[C@@H](CCCCCCCCC[S+]([O-])CCCC(F)(F)C(F)(F)F)[C@H]3[C@@H]1CC[C@@H]2O (stereo partly drawn) [Fulvestrant, fulvestrant]",average reduction in Ki67,[1]; 250 mg dose,47%
same,average reduction in Ki67,[1]; 500 mg dose,79%
same,GI50,[2],63 µM
same,overall response rate (CR+PR),"[3]; 250 mg fulvestrant, 19 patients with array data",26%
same,number of partial responders,[3]; [5],5
same,number of patients with stable disease,[3]; [5],13
same,number of progressive disease patients,[3]; [5],1
same,number of non-responders (SD+PD),[3]; [6],9
same,number of responders (PR),[3]; [6],11
same,overall response rate (CR+PR),[3]; 500 mg fulvestrant,50%
CN(C)CCOc1ccc(/C(=C(/CCCl)c2ccccc2)c2ccccc2)cc1 [toremifene],GI50,[2],13 µM
CC(C)(C#N)c1cc(Cn2cncn2)cc(C(C)(C)C#N)c1 [anastrozole],number of nonresponders,[4],Seven
same,number of responders,[4],Nine
CC/C(=C(\c1ccccc1)c1ccc(OCCN(C)C)cc1)c1ccccc1 [tamoxifen],GI50,[2],4.3 µM
O=C(c1ccc(OCCN2CCCCC2)cc1)c1c(-c2ccc(O)cc2)sc2cc(O)ccc12 [raloxifene],GI50,[2],8.4 µM
